Experiment: solubility (saturation concentration) of the salts in water versus temperature, FIG. 2
Format: physicochemical
Settings: at 0° C., aqueous, read from FIG. 2

[Cl-].[K+] [KCl]
saturation concentration in water: about 0.41 moles/100 g H2O

From US20090155318A1, “PROCESS TO FORM NANO-SIZED MATERIALS, THE COMPOSITIONS AND USES THEREOF” (priority 2006, published 2009)
